Measured values: publication PMC7269503 (Antimicrobial Agents and Chemotherapy, 2020)
Values after ≈ are worked out from the molar mass of the structure shown.

How the values were obtained:
[1] = female, ICR, mouse, in vivo, po, 2.5 mg/kg
[2] = tested on: OPC-167832-resistant isolates of M. tuberculosis H37Rv; format: cell-based

## O=C1CCc2c(OC[C@]3(O)CCN(c4c(F)cc(Cl)cc4F)C[C@H]3O)ccc(F)c2N1 [OPC-167832]
[1]
  AUCt/12 h/MIC: 95 fold
  Cmax/MIC: 314 fold
[2]
  MIC against Rv0678 mutants: 1 ng/mL (≈ 2.19 nM)
